Where two headings read alike, the source gives them in different places.
How the values were obtained:
cancer cell lines [1] = test: Cytotoxic activity of CiTX, comparison of orders of magnitude; assay type: cell-based; conditions: this work
Procedure: Cell viability. […] The cell viability assay was performed using portimine-A as a positive control (Table 4). […] Table 4. Cytotoxic activity of portimine-A and ingrilimine

cancer cell lines [2] = conditions: literature (Tang et al. 2023; Fribley et al. 2019); cited from earlier work
[3] = target: muscle (α1)2βγδ nAChR subtype (Torpedo marmorata, UniProt P02711+Q6S3H8+Q6S3H9); test: Two-electrode voltage clamp electrophysiology, antagonistic activity on Xenopus laevis oocytes having incorporated Torpedo muscle-type nAChR; assay type: cell-based; conditions: TEVC, value (95% CI), toxin purified by the applicant, Figure 5, read-out: nAChR subtype (nM; 95% CI) α12β1γδ (Torpedo)
muscle (α1)2βγδ nAChR subtype, sequence (P02711 25-461): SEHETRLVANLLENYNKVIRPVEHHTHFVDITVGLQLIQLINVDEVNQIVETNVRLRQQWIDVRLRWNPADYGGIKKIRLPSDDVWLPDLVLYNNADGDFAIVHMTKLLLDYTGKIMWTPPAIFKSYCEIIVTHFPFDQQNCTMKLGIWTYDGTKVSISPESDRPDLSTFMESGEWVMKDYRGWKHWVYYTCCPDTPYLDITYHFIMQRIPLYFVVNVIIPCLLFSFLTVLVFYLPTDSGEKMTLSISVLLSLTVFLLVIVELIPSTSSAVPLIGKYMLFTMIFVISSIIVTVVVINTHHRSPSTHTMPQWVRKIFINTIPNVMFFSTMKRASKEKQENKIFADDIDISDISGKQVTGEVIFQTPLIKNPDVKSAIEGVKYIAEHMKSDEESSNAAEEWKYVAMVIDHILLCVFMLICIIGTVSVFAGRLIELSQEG
muscle (α1)2βγδ nAChR subtype, sequence (Q6S3H9 entry or part of it): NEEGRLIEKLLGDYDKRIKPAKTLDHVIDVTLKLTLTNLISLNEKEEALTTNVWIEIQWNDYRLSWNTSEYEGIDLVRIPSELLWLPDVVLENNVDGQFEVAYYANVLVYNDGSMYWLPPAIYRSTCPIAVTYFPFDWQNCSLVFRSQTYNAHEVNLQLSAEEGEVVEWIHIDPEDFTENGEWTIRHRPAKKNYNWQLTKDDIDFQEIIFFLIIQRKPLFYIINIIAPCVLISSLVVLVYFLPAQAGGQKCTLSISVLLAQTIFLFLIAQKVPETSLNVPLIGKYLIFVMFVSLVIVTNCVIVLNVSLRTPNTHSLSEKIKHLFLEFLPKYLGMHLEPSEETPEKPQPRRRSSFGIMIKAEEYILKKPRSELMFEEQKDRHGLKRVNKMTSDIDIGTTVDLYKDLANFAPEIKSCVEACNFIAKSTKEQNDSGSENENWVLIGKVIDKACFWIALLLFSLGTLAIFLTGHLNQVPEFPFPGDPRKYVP
muscle (α1)2βγδ nAChR subtype, sequence (Q6S3H8 entry or part of it): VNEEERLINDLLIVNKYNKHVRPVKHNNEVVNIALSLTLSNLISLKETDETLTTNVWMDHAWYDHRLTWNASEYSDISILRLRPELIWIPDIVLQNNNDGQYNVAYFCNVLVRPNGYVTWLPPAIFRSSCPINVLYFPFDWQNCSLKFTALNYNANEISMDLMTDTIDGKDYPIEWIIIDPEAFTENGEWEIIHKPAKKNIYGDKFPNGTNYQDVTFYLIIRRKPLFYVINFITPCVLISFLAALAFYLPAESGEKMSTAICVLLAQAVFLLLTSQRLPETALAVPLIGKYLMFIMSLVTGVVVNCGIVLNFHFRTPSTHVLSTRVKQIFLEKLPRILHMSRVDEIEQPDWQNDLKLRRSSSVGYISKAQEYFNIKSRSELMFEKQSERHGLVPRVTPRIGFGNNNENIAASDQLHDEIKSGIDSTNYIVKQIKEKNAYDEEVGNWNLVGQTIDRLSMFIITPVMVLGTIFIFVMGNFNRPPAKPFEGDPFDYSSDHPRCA
muscle (α1)2βγδ nAChR subtype, sequence (Q6S3I0 entry or part of it, further chain): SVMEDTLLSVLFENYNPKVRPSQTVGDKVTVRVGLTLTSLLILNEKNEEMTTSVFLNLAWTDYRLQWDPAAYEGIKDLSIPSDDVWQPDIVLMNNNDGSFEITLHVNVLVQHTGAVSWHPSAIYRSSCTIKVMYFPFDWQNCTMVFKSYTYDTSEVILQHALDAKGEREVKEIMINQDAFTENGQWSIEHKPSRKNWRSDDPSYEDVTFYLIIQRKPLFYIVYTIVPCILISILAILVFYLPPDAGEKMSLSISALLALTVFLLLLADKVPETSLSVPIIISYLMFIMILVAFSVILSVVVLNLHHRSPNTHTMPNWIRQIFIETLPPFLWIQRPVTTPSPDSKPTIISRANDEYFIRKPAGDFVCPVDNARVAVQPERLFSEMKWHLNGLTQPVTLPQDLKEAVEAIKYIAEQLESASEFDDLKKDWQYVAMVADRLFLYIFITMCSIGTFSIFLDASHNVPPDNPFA
Text: The emerging cyclic imines toxins (CiTXs) of global distribution across coastal environments that are produced by dinoflagellates move fast up the human food chain through shellfish. The CiTX family includes 44 compounds: 7 gymnodimines (A-E, 12-methylgymnodimine and 16-desmethyl gymnodimine D), 16 spirolides (A-D, G-I, 13-desmethyl spirolide-C, 27-Hydroxy-13-desmethyl spirolide-C, 13,19-didesmethyl spirolide-C, 20-hydroxy-13,19-didesmethyl spirolide- C, 27-hydroxy-13,19-spirolide-C, 27-Oxo-13,19-didesmethyl spirolide-C, 13-desmethyl spirolide-D, 20-hydroxy-13,19-didesmethyl spirolide-D and 20-methyl spirolide-G), 8 pinnatoxins (A-H), 3 pteriatoxins (A-C), 6 prorocentrolides (A-B, 4- hydroxyprorocentrolide, 9,51-dihydro prorocentrolide, 30-sulfate prorocentrolide and 14-O-acetyl-4-hydroxyprorocentrolide), 1 spiroprorocentrimine, 2 portimines (A and B), and 1 kabirimine, (Aráoz et al. (2020) Cyclic imine toxins survey in coastal european shellfish samples: Bioaccumulation and mode of action of 28-O-palmitoyl ester of pinnatoxin-G. First report of portimine-A bioaccumulation. Harmful Algae, 98 [1]). The spiroimine moiety is the major feature characterizing cyclic imine toxins. […]

HCT116 cells = test: JC-1 mitochondrial membrane potential assay (flow cytometry); assay type: cell-based, human

| Compound | cytotoxic activities, order of magnitude (cancer cell lines [1]) | cytotoxic activities, order of magnitude (cancer cell lines [2]) | IC50 [3] [nM] | JC-1 % (HCT116 cells; 1 nM, 24 h, cells with mitochondrial membrane depolarization) [%] | JC-1 % (HCT116 cells; 1 nM, 48 h) [%] | JC-1 % (HCT116 cells; 5 nM, 24 h) [%] |
| --- | --- | --- | --- | --- | --- | --- |
| C=CC1=C[C@@H]2C[C@@H](O)[C@@H](O)/C(C)=C/C/C(C)=C/CCC3=NCCC[C@]32CC1 [Ingrilimine, ingrilimine] | ~10^-8 M | – | – | – | – | – |
| C=CC1=C[C@@H]2[C@@H]3O[C@]4(CC[C@H](O4)[C@@H](C)C[C@@H](O)C3=O)C[C@H](O)C3=NCC[C@@]32CC1 [Portimine-A] | – | ~10^-9 M | 11900 | 5.1 | 8.1 | 9.2 |
